Tests used:
Candida albicans [1] = experiment: Fungicidal activity, large-scale test on contaminated surfaces and fabrics; format: cell-based; conditions: composition 0.01 % by mass; surfaces of ceramics, metal, wood, rubber, fabrics
Method: (§1) The large-scale tests were carried out by using Candida albicans and Candida tropicalis strains 2-day culture of which was diluted with an isotonic solution of sodium chloride to the concentration of 5x10^7 cells in 1 ml.
(§2) The suspended cell culture was applied onto the surface (7 mm in diameter) of articles made of ceramics, metal, wood and rubber as well as cotton, flannel woollen fabrics which were presterillized.
(§3) In a day after incubating from the treated surfaces, the washings were taken with a cotton-gauze tampon wetted with Sabouraud^ts liquid medium, immersed into the tubes with a similar medium and placed into a thermostat at 37 °C for two days. Thereafter, the inoculum was introduced in Sabouraud's stiff agar, and the growth records were made by a conventional procedure.

Candida tropicalis [2] = experiment: as above; format: cell-based; conditions: composition 0.01 % by mass; surfaces of ceramics, metal, wood, rubber, fabrics
Method: as §1, §2, §3

Candida albicans [3] = experiment: Fungicidal activity, laboratory test on Sabouraud medium; format: cell-based; conditions: composition 0.01 % by mass in distilled water
Solubility (qualitative) = conditions: water, alcohols, acetone
Candida tropicalis [4] = experiment: Fungicidal activity, laboratory test on Sabouraud medium; format: cell-based; conditions: composition 0.01 % by mass in distilled water
Method: A fungicidal composition based on this compound was prepared which was a solution of it in distilled water at the concentration pf 0.01 % by mass. A fungicidal activity of the composition, according to the invention, was tested in laboratory conditions for inhibiting the growth of fungi such as Candida tropicalis affecting the macosal and skin coats, and internals.
To this, the Petri dishes containing the Sabouraud growth medium were inoculated with a suspension of microorganisms at the concentration of 5x10^7 cells of fungi in 1 ml.
The restricted surface areas (7 mm in diameter) were coated with the composition by means of a small metal spatula 4x4 mm in size. In a day of incubating at 37 °C in a thermostat, the composition inhibited the growth of yeast--like fungi. An antifungal activity of the composition was specified by a method of 10-fold serial dilution using Sabouraud's liquid medium in 2 ml of which 2x10^5 cells were introduced. After two days of incubation in the thermostat at 34 °C, a minimum dilution of the substance exerting a fungicidal effect was determined.

[5] = Toxicity LD50 of the compound; format: in vivo; conditions: species and route not given
mice and rats = conditions: for mice and rats; cited from earlier work

In the case of `O=C(NP(=O)(Sc1ccc(Cl)cc1)Sc1ccc(Cl)cc1)C(Cl)(Cl)CCl` [Example 9, di--para-chlorothiophenyl ether of α, α,β-trichloropropio- nylamidophosphoric acid], the “Inhibition of growth of fungal colonies, % Candida albicans tests large-scale” value (Candida albicans [1]) is reported as 100%, the “Inhibition of growth of fungal colonies, % Candida tropicalis tests large-scale” value (Candida tropicalis [2]) is reported as 100% and the “Inhibition of growth of fungal colonies, % Candida albicans tests laboratory” value (Candida albicans [3]) is reported as 100%. For the same compound, the solubility (Solubility (qualitative)) was “soluble in water, alcohols, acetone”, the “Inhibition of growth of fungal colonies, % Candida tropicalis tests laboratory” value (Candida tropicalis [4]) was 100% and the LD50 [5] was 670 ml/k^g.

In the case of `COP(=O)(OC)C(O)C(Cl)(Cl)Cl` (stereo not shown) [Known composition, 0,0-dimethyl(1-hydroxy-2,2,2-trichloroethyl)phosphonate], the LD50 (mice and rats) is given as 225 to 1200 mg/kg.

Reference: patent EP0407583A1, “DERIVATIVES OF DICHLOR[…] ACYLAMIDO[…] AND INSECTICIDAL, FU[…] HEMATOCIDAL PREPARATIONS BASED ON THEM” (priority 1989, dated 1990)
